In US11905284B2, “5,7-dihydro-pyrrolo-pyridine derivatives” (PFIZER INC., priority 2016, dated 2024):

Target: T1, Human M4 receptors (Homo sapiens, UniProt P08173)
T1 construct: expressed in transfected cells; host or cells: HEK293 cells with Promega GloSensor cAMP technology, stably expressing hM4
T1 sequence (P08173 1-479): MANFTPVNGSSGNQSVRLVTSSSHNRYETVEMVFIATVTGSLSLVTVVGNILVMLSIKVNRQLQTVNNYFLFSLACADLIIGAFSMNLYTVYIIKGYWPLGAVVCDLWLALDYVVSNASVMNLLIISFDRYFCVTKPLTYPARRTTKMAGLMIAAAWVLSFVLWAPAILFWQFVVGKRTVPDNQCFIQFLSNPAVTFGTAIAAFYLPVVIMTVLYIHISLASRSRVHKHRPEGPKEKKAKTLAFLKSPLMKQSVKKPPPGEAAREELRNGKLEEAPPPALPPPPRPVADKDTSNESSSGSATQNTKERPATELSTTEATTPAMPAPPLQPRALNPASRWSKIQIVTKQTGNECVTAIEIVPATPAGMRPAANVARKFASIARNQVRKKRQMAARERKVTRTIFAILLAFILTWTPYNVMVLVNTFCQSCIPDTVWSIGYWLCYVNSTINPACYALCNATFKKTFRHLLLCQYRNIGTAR
Assay: M4 PAM cAMP assay (GloSensor)
Type: cell-based
Conditions: for Emax: HEK293, read-out: M4 glosensor EC50 Mean Asymptote Maximum (%); for EC50 / M4 glosensor EC50 Mean Asymptote Maximum (%): HEK293 GloSensor cells expressing hM4, with EC20 acetylcholine and isoproterenol, geometric mean of 2-4 determinations unless otherwise indicated; for M4 glosensor EC50 Mean Asymptote Maximum (%): Emax = maximum asymptote of fitted dose response curve
Protocol: The M4 PAM binding affinity for the compounds of the present invention was determined utilizing the following biological assay(s):
The M4 cAMP assay was designed to determine the potency and efficacy of muscarinic positive allosteric modulators (PAMs). Human M4 receptors were stably expressed in Human embryonic kidney (HEK293) cells expressed with the Promega GloSensor™ cAMP technology.
HEK293 GloSensor cells expressing hM4 cells were cultured in growth media containing DMEM with 10% FBS, 1% Penicillin/Streptomycin, 500 μg/mL G418, 200 μg/mL Hygomycin B, and 1% Glutamax. […] Plates were incubated at 37 degrees C. and 5% CO2 for use after 24 hours.
Compound Preparation for Agonist Screen:
Each compound was tested at 10 concentrations in duplicate per experiment. Compound plates are spotted with 0.2 μL/well agonist at 400 times the final assay concentration. Positive and negative controls for the compound alone agonist response was 10 μM acetylcholine (Sigma #A2661) and DMSO, respectively. EC20 of acetylcholine was also used to define PAM activities.
Promega GloSensor™ reagent (Promega #E1291) had previously been aliquotted. […] Stock solution was mixed. Culture media in cell plates was discarded, then replaced with 40 μL/well pre-warmed equilibration media, then incubated in the dark at room temperature for 2 hours. During the incubation, stimulation media containing agonist and EC20 acetylcholine was prepared. […] Compounds are now 5 times the final assay concentration. The plate was mixed using a plate agitator. At the end of the 2 hour GloSensor™ incubation, add 10 μL of the CO2-independent media containing agonist, EC20 acetylcholine and isoproterenol to the cell plate. Cell plate was then incubated for 10 minutes at room temperature, and then read using an EnVision plate reader (Perkin Elmer).
Data was exported from the EnVision plate reader. The percent effect for each well was determined using the mean values for the positive and negative controls on each plate for each read, specifically 100*(compound−negative control)/(positive control−negative control). Dose response curves were fitted to the compound percent effect data using a 4-parameter logistic fit model. Data was reported as EC50 and Emax, with the Emax as the maximum asymptote of the fitted dose response curve.

Emax [%] | EC50 [nM] | M4 glosensor EC50 Mean Asymptote Maximum (%) | Compound
92.4 | 9.75 |  | Cc1cc(C(F)F)nc2c1CN(C(=O)CC1CN(c3ccnc(C(F)(F)F)c3)C1)C2 [Example 6, 1-[2-(Difluoromethyl)-4-methyl-5,7-dihydro-6H-pyrrolo[3,4-b]pyridin-6-yl]-2-{1-[2-(trifluoromethyl)pyridin-4-yl]azetidin-3-yl}ethanone]
99.8 | 26.1 |  | COc1nc2c(c(C)c1C)CN(C(=O)CC1CN(c3cncnc3)C1)C2 [Example 29, 1-(2-methoxy-3,4-dimethyl-5,7-dihydro-6H-pyrrolo[3,4-b]pyridin-6-yl)-2-[1-(pyrimidin-5-yl)azetidin-3-yl]ethanone]
89.3 | 17.8 |  | COCc1cc(C)c2c(n1)CN(C(=O)CC1CN(c3cncnc3)C1)C2 [Example 31, 1-[2-(methoxymethyl)-4-methyl-5,7-dihydro-6H-pyrrolo[3,4-b]pyridin-6-yl]-2-[1-(pyrimidin-5-yl)azetidin-3-yl]ethanone]
93.5 | 15.6 |  | Cc1cc(C(F)F)nc2c1CN(C(=O)CC1CN(c3ccnc(C(F)F)c3)C1)C2 [Example 45, 1-[2-(difluoromethyl)-4-methyl-5,7-dihydro-6H-pyrrolo[3,4-b]pyridin-6-yl]-2-{1-[2-(difluoromethyl)pyridin-4-yl]azetidin-3-yl}ethanone]
95.3 | 90.5 |  | Cc1cc(C)c2c(n1)CN(C(=O)CC1CN(c3ccc(C(O)C4CC4)cc3)C1)C2 (stereo not drawn) [Example 73, 2-(1-{4-[cyclopropyl(hydroxy)methyl]phenyl}azetidin-3-yl)-1-(2,4-dimethyl-5,7-dihydro-6H-pyrrolo[3,4-b]pyridin-6-yl)ethanone]
97.9 | 23.6 |  | COCc1nc2c(c(C)c1C)CN(C(=O)CC1CN(c3cncnc3)C1)C2 [Example 40, 1-[2-(methoxymethyl)-3,4-dimethyl-5,7-dihydro-6H-pyrrolo[3,4-b]pyridin-6-yl]-2-[1-(pyrimidin-5-yl)azetidin-3-yl]ethanone]
106 | 9.53 |  | Cc1nc2c(c(C)c1C)CN(C(=O)CC1CN(c3ccnc(C(F)F)c3)C1)C2 [Example 46, 2-{1-[2-(difluoromethyl)pyridin-4-yl]azetidin-3-yl}-1-(2,3,4-trimethyl-5,7-dihydro-6H-pyrrolo[3,4-b]pyridin-6-yl)ethanone]
109 | 4.82 |  | COc1nc2c(c(C)c1Cl)CN(C(=O)CC1CN(c3cccnc3)C1)C2 [Example 22, 1-(3-chloro-2-methoxy-4-methyl-5,7-dihydro-6H-pyrrolo[3,4-b]pyridin-6-yl)-2-[1-(pyridin-3-yl)azetidin-3-yl]ethanone]
105 | 2.99 |  | COCc1nc2c(c(C)c1Cl)CN(C(=O)CC1CN(c3cccnc3)C1)C2 [Example 48, 1-[3-chloro-2-(methoxymethyl)-4-methyl-5,7-dihydro-6H-pyrrolo[3,4-b]pyridin-6-yl]-2-[1-(pyridin-3-yl)azetidin-3-yl]ethanone]
84.4 | 460 |  | COc1ccc(N2CC(CC(=O)N3Cc4nc(C)cc(C)c4C3)C2)cc1CC#N [Example 74, (5-{3-[2-(2,4-dimethyl-5,7-dihydro-6H-pyrrolo[3,4-b]pyridin-6-yl)-2-oxoethyl]azetidin-1-yl}-2-methoxyphenyl)acetonitrile]
98.2 | 8.88 |  | Cc1nc2c(c(C)c1C)CN(C(=O)CC1CN(c3ncns3)C1)C2 [Example 5, 2-[1-(1,2,4-Thiadiazol-5-yl)azetidin-3-yl]-1-(2,3,4-trimethyl-5,7-dihydro-6H-pyrrolo[3,4-b]pyridin-6-yl)ethanone]
107 | 71.9 |  | Cc1ccc([C@H]2C[C@@H]2CC(=O)N2Cc3nc(C)cc(C)c3C2)cn1 [Example 17, 1-(2,4-Dimethyl-5,7-dihydro-6H-pyrrolo[3,4-b]pyridin-6-yl)-2-[(1R,2S)-2-(6-methylpyridin-3-yl)cyclopropyl]ethanone]
88.5 | 40.2 |  | Cc1nc2c(c(C)c1C)CN(C(=O)OC1CN(c3ncns3)C1)C2 [Example 64, 1-(1,2,4-thiadiazol-5-yl)azetidin-3-yl 2,3,4-trimethyl-5,7-dihydro-6H-pyrrolo[3,4-b]pyridine-6-carboxylate]
88.6 | 25.2 |  | Cc1cc(C)c2c(n1)CN(C(=O)CC1CN(c3ccc4nc(C)cn4n3)C1)C2 [Example 43, 1-(2,4-dimethyl-5,7-dihydro-6H-pyrrolo[3,4-b]pyridin-6-yl)-2-[1-(2-methylimidazo[1,2-b]pyridazin-6-yl)azetidin-3-yl]ethanone]
71.8 | 209 |  | Cc1cc(C)c2c(n1)CN(C(=O)CC1Cc3ccccc3C1)C2 [Example 56, 2-(2,3-dihydro-1H-inden-2-yl)-1-(2,4-dimethyl-5,7-dihydro-6H-pyrrolo[3,4-b]pyridin-6-yl)ethanone]
 | 9080 | 62.5 | Cc1cc(C)c2c(n1)CN(C(=O)CC1CN(c3cccnc3)C1)C2C (single isomer, unassigned) [Example 14, 2-[1-(Pyridin-3-yl)azetidin-3-yl]-1-(2,4,5-trimethyl-5,7-dihydro-6H-pyrrolo[3,4-b]pyridin-6-yl)ethanone]
99.2 | 14.3 |  | COCc1cc(C)c2c(n1)CN(C(=O)CC1CN(c3ccnc(C(F)F)c3)C1)C2 [Example 50, 2-{1-[2-(difluoromethyl)pyridin-4-yl]azetidin-3-yl}-1-[2-(methoxymethyl)-4-methyl-5,7-dihydro-6H-pyrrolo[3,4-b]pyridin-6-yl]ethanone]
95.6 | 7.35 |  | CCNc1nccc(N2CC(CC(=O)N3Cc4nc(C)cc(C)c4C3)C2)n1 [Example 41, 1-(2,4-dimethyl-5,7-dihydro-6H-pyrrolo[3,4-b]pyridin-6-yl)-2-{1-[2-(ethylamino)pyrimidin-4-yl]azetidin-3-yl}ethanone]
 | 28 | 106 | Cc1cc(C)c2c(n1)CN(C(=O)CC1CN(c3cccnc3)C1)C2C (single isomer, unassigned) [Example 15, 2-[1-(Pyridin-3-yl)azetidin-3-yl]-1-(2,4,5-trimethyl-5,7-dihydro-6H-pyrrolo[3,4-b]pyridin-6-yl)ethanone]
94.4 | 16.8 |  | COCc1cc(C)c2c(n1)CN(C(=O)CC1CN(c3cccnc3)C1)C2 [Example 27, 1-[2-(methoxymethyl)-4-methyl-5,7-dihydro-6H-pyrrolo[3,4-b]pyridin-6-yl]-2-[1-(pyridin-3-yl)azetidin-3-yl]ethanone]
93 | 10.4 |  | Cc1nc2c(c(C)c1C)CN(C(=O)OC1CN(c3cccnc3)C1)C2 [Example 36, 1-(pyridin-3-yl)azetidin-3-yl 2,3,4-trimethyl-5,7-dihydro-6H-pyrrolo[3,4-b]pyridine-6-carboxylate]
111 | 4.68 |  | COCc1nc2c(c(C)c1Cl)CN(C(=O)CC1CN(c3ccnc(OC(F)F)c3)C1)C2 [Example 52, 1-[3-chloro-2-(methoxymethyl)-4-methyl-5,7-dihydro-6H-pyrrolo[3,4-b]pyridin-6-yl]-2-{1-[2-(difluoromethoxy)pyridin-4-yl]azetidin-3-yl}ethanone]
47 | 95.7 |  | Cc1cc(C)c2c(n1)CN(C(=O)OC1CN(c3nncs3)C1)C2 [Example 62, 1-(1,3,4-thiadiazol-2-yl)azetidin-3-yl 2,4-dimethyl-5,7-dihydro-6H-pyrrolo[3,4-b]pyridine-6-carboxylate]
89.2 | 105 |  | CNC(=O)c1ccc(N2CC(CC(=O)N3Cc4nc(C)cc(C)c4C3)C2)cc1 [Example 75, 4-{3-[2-(2,4-dimethyl-5,7-dihydro-6H-pyrrolo[3,4-b]pyridin-6-yl)-2-oxoethyl]azetidin-1-yl}-N-methylbenzamide]
